# Measured values published in US9771369B2, “Compounds and methods for kinase modulation, and indications therefor” (Plexxikon Inc., priority 2014, dated 2017).
# Assays:
# c-kit mutant D816V = c-kit mutant D816V (Homo sapiens (Human), UniProt P10721, D816V/DEL694-753); assay: c-Kit mutant D816V biochemical assay (AlphaScreen kinase activity)
# Protocol: The c-kit mutant D816V (or kinase domain thereof) is an active kinase in AlphaScreen. IC50 values are determined with respect to inhibition of c-Kit mutant D816V kinase activity, where inhibition of phosphorylation of a peptide substrate is measured as a function of compound concentration. Compounds to be tested were dissolved in DMSO to a concentration of 30 mM. These were diluted […] of DMSO (4 mM) and 1 μl was added to an assay plate. These were then serially diluted 1:3 (50 μl to […] DMSO) for a total of 8 points. Plates were prepared such that each kinase reaction is […] in 1× kinase buffer (25 mM HEPES, pH 7.2, 8 mM MgCl2, 2 mM MnCl2, 50 mM NaCl, 0.01% Brij, 1 mM DTT, 0.01% BSA), 5% DMSO and 10 μM ATP. Substrate was 30 nM biotin-(E4Y)10 (EMD Millipore, Cat#12-440). C-kit mutant D816V kinase was at 0.75 ng per sample. After incubation of the kinase reaction for 30 minutes at room temperature, 5 μl of donor beads (Streptavidin coated beads (Perkin Elmer Life Science) final concentration 7.5 μg/ml) in stop buffer (25 mM Hepes pH 7.5, 100 mM EDTA, 0.01% BSA) was added, the sample was mixed and incubated for 30 minutes at room temperature before adding […] of acceptor beads (PY30 coated beads (Perkin Elmer Life Science) final concentration 7.5 μg/ml) in stop buffer. The samples were incubated for 60 minutes at room temperature and the signal per well was read on EnVision reader. Phosphorylated substrate results in binding of the PY30 antibody and association of the donor and acceptor beads such that signal correlates with kinase activity. The signal vs. compound concentration was used to determine the IC50.
# Recombinant c-kit mutant D816V (residues 551-934, kinase insertion domain residues 694-753 deleted) with a 6×-histidine N-terminal tag (SEQ ID NO: 3) was expressed in E. coli Arctic Express (DE3) RIL (Stratagene). Cells were grown in Terrific Broth (TB) media to an OD600 of 0.6 at 37° C. at which temperature was reduced to 10° C., protein was induced with 1.0 mM IPTG for 18 hours and harvested by centrifugation at 8000×g for 30 minutes. Cells were re-suspended in 0.1M KPO4 pH 8.0, 250 mM NaCl, 10% Glycerol, 0.75% NP-40, 25 mM Imidazole, 5 mM BME with 0.2 mg/ml Lysosyme, 2.0 mM PMSF, 25 μg/ml DNAse I, incubated in ice for 30 minutes and lyzed with a cell disruptor (MicroFluidics). The lysate was clarified by centrifugation at 30,000×g for 2 hours. The protein was captured with Talon resin (Clontech). Contaminating proteins were washed off with 25 mM Tris-HCl pH 8.3, 250 mM NaCl, 15% Glycerol, 1% Triton X-100, and protein eluted using 100 mM EDTA. The protein was further purified using Gel Filtration column 26/600 Superdex 300 (GE) in 50 mM Tris-HCl , pH 8.0, 250 mM NaCl, 15% Glycerol, 5 mM BME. The protein was aliquoted and flash-frozen in liquid Nitrogen.
# [1] = test system: BaF3-FL KIT D816V or BaF3-FL KIT V560G/D816V cell line; assay: Cell-based assays of c-Kit mutant kinase activity (cell proliferation, ATPlite); settings: at least one of the c-kit cell assays of Example 7
# Protocol: The c-Kit mutant D816V inhibitors were assessed using an engineered BaF3-FL KIT D816V or BaF3-FL KIT V560G/D816V cell line. The BaF3-FL KIT D816V cell lines were created by introduction of KIT mutant (D816V) full length constructs that render the cells dependent on the introduced kinase for growth. Inhibitors of c-Kit mutant D816V kinase reduce or eliminate the mediated c-kit mutant D816V kinase activation, resulting in reduced cell proliferation of the BaF3-FL Kit mutant D816V cells. This inhibition is measured by the effect of compound concentration on cell growth to assess IC50 values. BaF3-FL KIT D816V cells were seeded at 1×10^4 cells per well of a 96 well cell culture plate in 50 μl of cell culture medium of RPMI Medium 1× (Invitrogen #11875-093) supplemented with 10% FBS (Invitrogen #10438), 1% Non Essential Amino Acids (Invitrogen #11140), 1% Penicillin Streptomycin (Invitrogen #15140), 1% L-Glutamine (Invitrogen #25030-081). Compounds were dissolved in DMSO at a concentration of 5 mM and were serially diluted 1:3 for a total of eight points and added to the cells to a final maximum concentration of 10 μM in 100 μl cell culture medium (final concentration 0.2% DMSO). Cells were also treated with Dasatinib as a positive control. The cells were incubated at 37° C., 5% CO2 for three days. ATPlite Buffer (Perkin Elmer #6016739) and substrate were equilibrated to room temperature, and enzyme/substrate Recombinant Firefly Luciferase/D-Luciferin was reconstituted. The cell plates were equilibrated to room temperature for 30 minutes, then lysed by addition of 25 μL per well of the ATPlite Reagent. The plate was mixed for 5 minutes on a plate shaker to lyse the cells. The plates were read on a Tecan Safire using Luminescence protocol modified to read 0.1s per well. The luminescence reading assesses the ATP content, which correlates directly with cell number such that the reading as a function of compound concentration is used to determine the IC50 value.
# Plasmids P75635 and P75565 were engineered for mammalian cell expression. In both plasmids, full-length human v-kit Hardy-Zuckerman 4 feline sarcoma viral oncogene homolog gene (NCBI accession NM_000222, KIT, residues M1-V976) was subcloned into the pCI-Neo vector (Promega E1841). Plasmid P75635 contains the mutation of residue Aspartic acid 816 to Valine. Plasmid P75565 contains the double mutation of residues Valine 560 to Glycine and Aspartic acid 816 to Valine. The pCI-neo Mammalian Expression Vector carries the human cytomegalovirus (CMV) immediate-early enhancer/promoter region to promote constitutive expression of KIT and contains the neomycin phosphotransferase gene, a selectable marker.
# It is understood that the results of these assays may vary as assay conditions are varied. Inhibition levels determined under the conditions described herein represent a relative activity for the compounds tested under the specific conditions employed. The cell based assays are likely to show variability due to the complexity of the system and the sensitivity thereof to any changes in the assay conditions. […] In some instances, the compounds were not tested in all of the assays, or assay results were not valid.
# Chain of c-kit mutant D816V (P10721 other isoform, or with tags, fused parts or gaps D816V/del 694-753): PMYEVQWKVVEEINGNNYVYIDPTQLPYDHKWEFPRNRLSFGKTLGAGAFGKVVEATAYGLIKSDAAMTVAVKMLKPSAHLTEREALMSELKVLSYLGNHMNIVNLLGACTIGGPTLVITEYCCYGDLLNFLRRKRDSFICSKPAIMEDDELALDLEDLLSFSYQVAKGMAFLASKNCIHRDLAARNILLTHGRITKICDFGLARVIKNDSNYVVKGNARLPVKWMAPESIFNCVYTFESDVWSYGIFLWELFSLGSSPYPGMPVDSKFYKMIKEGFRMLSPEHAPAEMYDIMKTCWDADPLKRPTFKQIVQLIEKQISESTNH
SMILES,IC50 (c-kit mutant D816V),IC50 [1]
"Cc1nc(C2CCN(c3ncnc4[nH]c(-c5ccc(F)cc5)cc34)CC2)[nH]c1-c1ccc2c(c1)OC(F)(F)O2 [P-3109, 4-[4-[5-(2,2-difluoro-1,3-benzodioxol-5-yl)-4-methyl-1H-imidazol-2-yl]-1-piperidyl]-6-(4-fluorophenyl)-7H-pyrrolo[2,3-d]pyrimidine]",0.0001 to 1 µM,< 10 µM
"Cc1nc(C2CCN(c3ncnc4[nH]c(-c5ccc(C#N)cc5)cc34)CC2)[nH]c1-c1ccc2c(c1)OC(F)(F)O2 [P-3110, 4-[4-[4-[5-(2,2-difluoro-1,3-benzodioxol-5-yl)-4-methyl-1H-imidazol-2-yl]-1-piperidyl]-7H-pyrrolo[2,3-d]pyrimidin-6-yl]benzonitrile]",0.0001 to 1 µM,< 10 µM
"COc1cc(-c2cc3c(N4CCC(c5nc(C)c(-c6ccc7c(c6)OC(F)(F)O7)[nH]5)CC4)ncnc3[nH]2)ccn1 [P-3111, 4-[4-[5-(2,2-difluoro-1,3-benzodioxol-5-yl)-4-methyl-1H-imidazol-2-yl]-1-piperidyl]-6-(2-methoxy-4-pyridyl)-7H-pyrrolo[2,3-d]pyrimidine]",0.0001 to 1 µM,< 10 µM
"COc1ccc(-c2[nH]c(C3CCN(c4ncnc5[nH]c(-c6ccc(C#N)cc6)cc45)CC3)nc2C)cn1 [P-3112, 4-[4-[4-[5-(6-methoxy-3-pyridyl)-4-methyl-1H-imidazol-2-yl]-1-piperidyl]-7H-pyrrolo[2,3-d]pyrimidin-6-yl]benzonitrile]",0.0001 to 1 µM,< 10 µM
"Cc1nc(C2CCN(c3ncnc4[nH]c(-c5ccc(C#N)cc5)cc34)CC2)[nH]c1-c1ccc(OC(F)F)cc1 [P-3113, 4-[4-[4-[5-[4-(difluoromethoxy)phenyl]-4-methyl-1H-imidazol-2-yl]-1-piperidyl]-7H-pyrrolo[2,3-d]pyrimidin-6-yl]benzonitrile]",0.0001 to 1 µM,< 10 µM
"COc1cccc(-c2[nH]c(C3CCN(c4ncnc5[nH]c(-c6cnn(C(F)F)c6)cc45)CC3)nc2C)c1 [P-3114, 6-[1-(difluoromethyl)pyrazol-4-yl]-4-[4-[5-(3-methoxyphenyl)-4-methyl-1H-imidazol-2-yl]-1-piperidyl]-7H-pyrrolo[2,3-d]pyrimidine]",0.0001 to 1 µM,< 10 µM
"Cc1nc(C2CCN(c3ncnc4[nH]c(-c5cnn(C(F)F)c5)cc34)CC2)[nH]c1-c1ccc(OC(F)F)cc1 [P-3115, 4-[4-[5-[4-(difluoromethoxy)phenyl]-4-methyl-1H-imidazol-2-yl]-1-piperidyl]-6-[1-(difluoromethyl)pyrazol-4-yl]-7H-pyrrolo[2,3-d]pyrimidine]",0.0001 to 1 µM,< 10 µM
"Cc1nc(C2CCN(c3ncnc4[nH]c(-c5cnn(C(F)F)c5)cc34)CC2)[nH]c1-c1ccc(OC(F)(F)F)cc1 [P-3116, 6-[1-(difluoromethyl)pyrazol-4-yl]-4-[4-[4-methyl-5-[4-(trifluoromethoxy)phenyl]-1H-imidazol-2-yl]-1-piperidyl]-7H-pyrrolo[2,3-d]pyrimidine]",0.0001 to 1 µM,< 10 µM
"COc1cc(-c2cc3c(N4CCC(c5nc(C)c(-c6ccc(C)s6)[nH]5)CC4)ncnc3[nH]2)ccn1 [P-3117, 6-(2-methoxy-4-pyridyl)-4-[4-[4-methyl-5-(5-methyl-2-thienyl)-1H-imidazol-2-yl]-1-piperidyl]-7H-pyrrolo[2,3-d]pyrimidine]",0.0001 to 1 µM,< 10 µM
"Cc1ccc(-c2[nH]c(C3CCN(c4ncnc5[nH]c(-c6ccc(F)cc6)cc45)CC3)nc2C)s1 [P-3118, 6-(4-fluorophenyl)-4-[4-[4-methyl-5-(5-methyl-2-thienyl)-1H-imidazol-2-yl]-1-piperidyl]-7H-pyrrolo[2,3-d]pyrimidine]",0.0001 to 1 µM,< 10 µM
"Cc1nc(C2CCN(c3ncnc4[nH]c(-c5ccc(F)cc5)cc34)CC2)[nH]c1-c1ccc(Cl)s1 [P-3119, 4-[4-[5-(5-chloro-2-thienyl)-4-methyl-1H-imidazol-2-yl]-1-piperidyl]-6-(4-fluorophenyl)-7H-pyrrolo[2,3-d]pyrimidine]",0.0001 to 1 µM,< 10 µM
"Cc1cc2c(N3CCC(c4nc(C)c(-c5ccc6c(c5)OCO6)[nH]4)CC3)ncnc2[nH]1 [P-3120, 4-[4-[5-(1,3-benzodioxol-5-yl)-4-methyl-1H-imidazol-2-yl]-1-piperidyl]-6-methyl-7H-pyrrolo[2,3-d]pyrimidine]",1 to 10 µM,< 10 µM
"Cc1cc2c(N3CCC(c4nc(C)c(-c5ccc6c(c5)OCCO6)[nH]4)CC3)ncnc2[nH]1 [P-3121, 4-[4-[5-(2,3-dihydro-1,4-benzodioxin-6-yl)-4-methyl-1H-imidazol-2-yl]-1-piperidyl]-6-methyl-7H-pyrrolo[2,3-d]pyrimidine]",0.0001 to 1 µM,< 10 µM
"Cc1nn(C)cc1-c1cc2c(N3CCC(c4nc(C)c(-c5ccc(OC(F)(F)F)cc5)[nH]4)CC3)ncnc2[nH]1 [P-3122, 6-(1,3-dimethylpyrazol-4-yl)-4-[4-[4-methyl-5-[4-(trifluoromethoxy)phenyl]-1H-imidazol-2-yl]-1-piperidyl]-7H-pyrrolo[2,3-d]pyrimidine]",0.0001 to 1 µM,< 10 µM
"COc1cccc(-c2[nH]c(C3CCN(c4ncnc5[nH]c(-c6ccnc(OC)c6)cc45)CC3)nc2C(F)(F)F)c1 [P-3123, 4-[4-[5-(3-methoxyphenyl)-4-(trifluoromethyl)-1H-imidazol-2-yl]-1-piperidyl]-6-(2-methoxy-4-pyridyl)-7H-pyrrolo[2,3-d]pyrimidine]",0.0001 to 1 µM,< 10 µM
"COc1cccc(-c2[nH]c(C3CCN(c4ncnc5[nH]c(-c6ccc(C#N)cc6)cc45)CC3)nc2C(F)(F)F)c1 [P-3124, 4-[4-[4-[5-(3-methoxyphenyl)-4-(trifluoromethyl)-1H-imidazol-2-yl]-1-piperidyl]-7H-pyrrolo[2,3-d]pyrimidin-6-yl]benzonitrile]",0.0001 to 1 µM,< 10 µM
